Earlier results in PubChem BioAssay AID1259409 (Chemical Carcinogenesis Research Information System (CCRIS), 2018).

Tested on: rodent chemically induced tumor inhibition, incidence and multiplicity
Test: CCRIS tumor inhibitor studies
Details: Carcinogen: AZOXYMETHANE, 25843-45-2, Dose [Inhibitor]: 0, Route [Inhibitor]: ORAL, Species: RAT, Strain/Sex: F344/MALE, Promoter: NONE USED

CN1C(C(=O)Nc2ccccn2)=C(O)c2ccccc2S1(=O)=O
tumour outcome (control, treated, inhibition, significance) (150 PPM IN DIET BEGINNING 1 WK POST CARCINOGEN DOSE FOR DURATION OF STUDY (STUDY DURATION: 56 WK), Target Tissue: Type of Lesion: COLON: ADENOMA, Dose [Carcinogen]: 29.6 MG/KG IN NORMAL SALINE ONCE): 11/30 (37%), 9/30 (30%), 19%, not calculated
tumour outcome (control, treated, inhibition, significance) (150 PPM IN DIET BEGINNING 1 WK POST CARCINOGEN DOSE FOR DURATION OF STUDY (STUDY DURATION: 56 WK), Target Tissue: Type of Lesion: SMALL INTESTINE: ADENOCARCINOMA, Dose [Carcinogen]: 29.6 MG/KG IN NORMAL SALINE ONCE): 10/30 (33%), 8/30 (27%), 20%, not calculated
tumour outcome (control, treated, inhibition, significance) (150 PPM IN DIET BEGINNING 1 WK POST CARCINOGEN DOSE FOR DURATION OF STUDY (STUDY DURATION: 56 WK), Target Tissue: Type of Lesion: SMALL INTESTINE: ADENOMA, Dose [Carcinogen]: 29.6 MG/KG IN NORMAL SALINE ONCE): 1/30 (3%), 1/30 (3%), 0%, not calculated
tumour outcome (control, treated, inhibition, significance) (150 PPM IN DIET FOR 29 WK BEGINNING 1 WK POST CARCINOGEN TREATMENT (STUDY DURATION: 32 WK), Target Tissue: Type of Lesion: COLON: ADENOMA, Dose [Carcinogen]: 15 MG/KG BW 1/WK FOR 2 WK): 77%, 33%, 57%, p<0.05
tumour outcome (control, treated, inhibition, significance) (150 PPM IN DIET FOR 29 WK BEGINNING 1 WK POST CARCINOGEN TREATMENT (STUDY DURATION: 32 WK), Target Tissue: Type of Lesion: COLON: CARCINOMA, Dose [Carcinogen]: 15 MG/KG BW 1/WK FOR 2 WK): 53%, 23%, 57%, p<0.05
tumour outcome (control, treated, inhibition, significance) (200 PPM IN DIET BEGINNING 1 WK PRIOR TO CARCINOGEN TREATMENT FOR DURATION OF STUDY (STUDY DURATION: 54 WK), Target Tissue: Type of Lesion: COLON: ADENOCARCINOMA, Dose [Carcinogen]: 15 MG/KG/BW 1/WK FOR 2 WK): 58%, 33%, 43%, p<0.05
tumour outcome (control, treated, inhibition, significance) (200 PPM IN DIET BEGINNING 1 WK PRIOR TO CARCINOGEN TREATMENT FOR DURATION OF STUDY (STUDY DURATION: 54 WK), Target Tissue: Type of Lesion: COLON: ADENOMA., Dose [Carcinogen]: 15 MG/KG/BW 1/WK FOR 2 WK): 6%, 8%, -33%, not calculated
tumour outcome (control, treated, inhibition, significance) (200 PPM IN DIET BEGINNING PRIOR TO CARCINOGEN DOSE AND CONTINUING FOR DURATION OF STUDY (STUDY DURATION: 54 WK), Target Tissue: Type of Lesion: COLON: ADENOCARCINOMA, Dose [Carcinogen]: 15 MG/KG 1/WK FOR 2 WK): 72%, 33%, 54%, p<0.001
tumour outcome (control, treated, inhibition, significance) (200 PPM IN DIET BEGINNING PRIOR TO CARCINOGEN DOSE AND CONTINUING FOR DURATION OF STUDY (STUDY DURATION: 54 WK), Target Tissue: Type of Lesion: COLON: ADENOMA, Dose [Carcinogen]: 15 MG/KG 1/WK FOR 2 WK): 14%, 3%, 79%, not calculated
tumour outcome (control, treated, inhibition, significance) (200 PPM IN DIET BEGINNING PRIOR TO CARCINOGEN DOSE AND CONTINUING FOR DURATION OF STUDY (STUDY DURATION: 54 WK), Target Tissue: Type of Lesion: SMALL INTESTINE: ADENOCARCINOMA, Dose [Carcinogen]: 15 MG/KG 1/WK FOR 2 WK): 50%, 17%, 66%, p<0.01
tumour outcome (control, treated, inhibition, significance) (200 PPM IN DIET BEGINNING PRIOR TO CARCINOGEN DOSE AND CONTINUING FOR DURATION OF STUDY (STUDY DURATION: 54 WK), Target Tissue: Type of Lesion: SMALL INTESTINE: ADENOMA, Dose [Carcinogen]: 15 MG/KG 1/WK FOR 2 WK): 3%, 0%, 100%, not calculated
tumour outcome (control, treated, inhibition, significance) (200 PPM IN DIET FOR 56 WK BEGINNING 2 WK PRIOR TO CARCINOGEN TREATMENT (STUDY DURATION: 56 WK), Target Tissue: Type of Lesion: COLON(DISTAL): TUMOR, Dose [Carcinogen]: 15 MG/KG 1/WK FOR 2 WK): 52%, 35%, 33%, p<0.05
tumour outcome (control, treated, inhibition, significance) (200 PPM IN DIET FOR 56 WK BEGINNING 2 WK PRIOR TO CARCINOGEN TREATMENT (STUDY DURATION: 56 WK), Target Tissue: Type of Lesion: COLON(PROXIMAL): TUMOR, Dose [Carcinogen]: 15 MG/KG 1/WK FOR 2 WK): 38%, 15%, 61%, p<0.01
tumour outcome (control, treated, inhibition, significance) (200 PPM IN DIET FOR 56 WK BEGINNING 2 WK PRIOR TO CARCINOGEN TREATMENT (STUDY DURATION: 56 WK), Target Tissue: Type of Lesion: SMALL INTESTINE(DISTAL): TUMOR, Dose [Carcinogen]: 15 MG/KG 1/WK FOR 2 WK): 12%, 6%, 50%, not significant
tumour outcome (control, treated, inhibition, significance) (200 PPM IN DIET FOR 56 WK BEGINNING 2 WK PRIOR TO CARCINOGEN TREATMENT (STUDY DURATION: 56 WK), Target Tissue: Type of Lesion: SMALL INTESTINE(PROXIMAL): TUMOR, Dose [Carcinogen]: 15 MG/KG 1/WK FOR 2 WK): 33%, 11%, 67%, p<0.05
